# Assay results: patent US7084253B2, “Protease-activated receptor PAR4 (ZCHEMR2)” (ZymoGenetics, Inc., priority 1998, dated 2006)
# Positions count from the first letter of the chain named. “Also recorded” adds a separate entry of the source. Where two headings read alike, the source gives them in different places. No end group written: not given here.
# B1: plasmin: arginine/lysine-specific serine protease (protein, UniProt P00747 20-580; P00747 581-810, looked up)
# Plasmin heavy chain A: EPLDDYVNTQGASLFSVTKKQLGAGSIEECAAKCEEDEEFTCRAFQYHSKEQQCVIMAENRKSSIIIRMRDVVLFEKKVYLSECKTGNGKNYRGTMSKTKNGITCQKWSSTSPHRPRFSPATHPSEGLEENYCRNPDNDPQGPWCYTTDPEKRYDYCDILECEEECMHCSGENYDGKISKTMSGLECQAWDSQSPHAHGYIPSKFPNKNLKKNYCRNPDRELRPWCFTTDPNKRWELCDIPRCTTPPPSSGPTYQCLKGTGENYRGNVAVTVSGHTCQHWSAQTPHTHNRTPENFPCKNLDENYCRNPDGKRAPWCHTTNSQVRWEYCKIPSCDSSPVSTEQLAPTAPPELTPVVQDCYHGDGQSYRGTSSTTTTGKKCQSWSSMTPHRHQKTPENYPNAGLTMNYCRNPDADKGPWCFTTDPSVRWEYCNLKKCSGTEASVVAPPPVVLLPDVETPSEEDCMFGNGKGYRGKRATTVTGTPCQDWAAQEPHRHSIFTPETNPRAGLEKNYCRNPDGDVGGPWCYTTNPRKLYDYCDVPQCAAPSFDCGKPQVEPKKCPGR
# Plasmin light chain B: VVGGCVAHPHSWPWQVSLRTRFGMHFCGGTLISPEWVLTAAHCLEKSPRPSSYKVILGAHQEVNLEPHVQEIEVSRLFLEPTRKDIALLKLSSPAVITDKVIPACLPSPNYVVADRTECFITGWGETQGTFGAGLLKEAQLPVIENKVCNRYEFLNGRVQSTELCAGHLAGGTDSCQGDSGGPLVCFEKDKYILQGVTSWGLGCARPNKPGVYVRVSRFVTWIEGVMRNN
# modifications: Plasmin
# notes: arginine/lysine-specific serine protease
# Tests used:
# PAR4 = biological target: T1, PAR4 (Homo sapiens, UniProt Q96RI0, A120T); test: phosphoinositide hydrolysis assay in COS cells transiently transfected with PAR4 cDNA; format: cell-based; details: for activity against PAR4 (other proteases): concentration not given; for response of PAR4-transfected COS cells (phosphatidylinositol 4,5 diphosphate hydrolysis): protease at 100 nM
# T1 construct: expressed in transfected cells; host or cells: COS-7
# T1 sequence (Q96RI0 18-385 A120T): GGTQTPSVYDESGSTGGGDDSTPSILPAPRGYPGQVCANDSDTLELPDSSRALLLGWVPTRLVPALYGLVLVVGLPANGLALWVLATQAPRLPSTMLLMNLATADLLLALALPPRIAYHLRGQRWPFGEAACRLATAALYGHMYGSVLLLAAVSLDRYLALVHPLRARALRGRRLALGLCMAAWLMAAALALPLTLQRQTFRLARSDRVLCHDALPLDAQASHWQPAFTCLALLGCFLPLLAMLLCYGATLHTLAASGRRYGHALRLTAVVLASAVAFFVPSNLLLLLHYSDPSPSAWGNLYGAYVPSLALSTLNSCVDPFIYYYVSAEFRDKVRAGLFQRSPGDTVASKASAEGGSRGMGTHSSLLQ
# Protocol: (§1) COS cells were transiently transfected with PAR4 cDNA, and examined for responses to thrombin and trypsin. Briefly, for the phosphoinositide hydrolysis assay, COS-7 cells were grown in Dulbecco's modified Eagle's medium (DMEM; Gibco/BRL, Gaithersburg, Md.) with 10% fetal bovine serum (FBS). Cells were plated at 3.5×10^5/35-mm plate one day before transfection. Two μg of DNA were transfected using 12 μl of lipofectAMINE (Gibco/BRL) for 5 h. The cells were incubated overnight in DMEM with 10% FBS, and then split into triplicate 35-mm wells. Forty-eight hours after transfection, the cells were loaded with 2 μCi/ml [^3H]myo-inositol (Amersham, Arlington Heights, Ill.) in serum-free DMEM and incubated overnight at 37° C. Cells were washed and treated with 20 mM LiCl in DMEM, with or without protease or peptide activators added at various concentrations. Cells were then incubated for 2 h at 37° C. and extracted with 750 μl of 20 mM formic acid for 30 min on ice. The inositol mono-, bis-, and trisphosphates were purified through a one ml AG 1-X8 anion-exchange resin (Bio-Rad, Hercules, Calif.) (T. Nanevicz et al., J. Biol. Chem. 271:702–06, 1996), and quantitated by scintillation counting. In each hydrolysis assay, surface expression levels of receptors were determined in triplicate in parallel cultures.
# PAR1 = biological target: T2, PAR1 (Homo sapiens, UniProt P25116); test: thrombin-stimulated phosphoinositide hydrolysis, PAR1 (comparison); format: cell-based; details: comparison with PAR4; read-out: half-maximal concentration (EC50) for PAR1
# T2 construct: expressed in transfected cells; COS-7 inferred from the assay of b141
# T2 sequence (P25116 22-425): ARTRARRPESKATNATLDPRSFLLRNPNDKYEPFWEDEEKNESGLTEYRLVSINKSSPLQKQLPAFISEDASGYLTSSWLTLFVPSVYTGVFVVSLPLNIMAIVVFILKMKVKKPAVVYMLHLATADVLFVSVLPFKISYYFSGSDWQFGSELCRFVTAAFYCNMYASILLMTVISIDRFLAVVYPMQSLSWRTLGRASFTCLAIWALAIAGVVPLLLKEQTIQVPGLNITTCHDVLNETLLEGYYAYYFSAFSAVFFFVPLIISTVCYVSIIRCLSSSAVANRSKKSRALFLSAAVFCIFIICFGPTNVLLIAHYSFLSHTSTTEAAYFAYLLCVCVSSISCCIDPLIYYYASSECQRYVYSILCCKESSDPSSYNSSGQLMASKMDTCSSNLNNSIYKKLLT
# Protocol: For comparative purposes, PAR1 protein was prepared. Briefly, the cDNA coding for PAR1 was isolated from a placental cDNA library by PCR. The PAR1 DNA sequence obtained was essentially identical to that previously reported, except for nucleotides 711–712 (CG→GC) and nucleotides 1091–1092 (CG→GC). […] These amino acid changes were confirmed by sequence analysis of the corresponding regions in the genomic DNA coding for PAR1.
# as §1, with “Forty-eight hours after transfection, the cells were loaded with 2 μCi/ml [^3H]myo-inositol (Amersham, Arlington Heights, Ill.) in serum-free DMEM and incubated overnight at 37° C. Cells were washed and treated with 20 mM LiCl in DMEM, with or without protease or peptide activators added at various concentrations. Cells were then incubated for 2 h at 37° C. and extracted with 750 μl of 20 mM formic acid for 30 min on ice.” left out
# PAR4 (R47A) = biological target: T3, PAR4 (R47A) (Homo sapiens, UniProt Q96RI0, A120T/R47A); test: phosphoinositide hydrolysis in COS cells expressing cleavage site mutant PAR4 (R47A); format: cell-based; details: Ala for Arg at residue 47
# T3 construct: expressed in transfected cells; host or cells: COS cells
# T3 sequence (Q96RI0 18-385 R47A/A120T): T1 sequence (Q96RI0 18-385 A120T) with R30A
# Protocol: as §1, with “cultures. […]” for “cultures.”
# PAR4 (R68A) = biological target: T4, PAR4 (R68A) (Homo sapiens, UniProt Q96RI0, A120T/R68A); test: phosphatidylinositol 4,5 diphosphate hydrolysis assay in COS cells expressing PAR4 mutant R68A; format: cell-based; details: Arg 68 to Ala, extracellular amino-terminal region
# T4 construct: expressed in transfected cells; host or cells: COS cells (inferred from the R47A sentence of the same paragraph)
# T4 sequence (Q96RI0 18-385 R68A/A120T): T1 sequence (Q96RI0 18-385 A120T) with R51A
# Protocol: as §1, with “cultures. […]” for “cultures.”
# PAR3 = biological target: T5, PAR3 (Homo sapiens, UniProt O00254); details: comparison with PAR4; read-out: half-maximal concentration (EC50) for PAR3; cited from earlier work
# T5 sequence (O00254 22-374): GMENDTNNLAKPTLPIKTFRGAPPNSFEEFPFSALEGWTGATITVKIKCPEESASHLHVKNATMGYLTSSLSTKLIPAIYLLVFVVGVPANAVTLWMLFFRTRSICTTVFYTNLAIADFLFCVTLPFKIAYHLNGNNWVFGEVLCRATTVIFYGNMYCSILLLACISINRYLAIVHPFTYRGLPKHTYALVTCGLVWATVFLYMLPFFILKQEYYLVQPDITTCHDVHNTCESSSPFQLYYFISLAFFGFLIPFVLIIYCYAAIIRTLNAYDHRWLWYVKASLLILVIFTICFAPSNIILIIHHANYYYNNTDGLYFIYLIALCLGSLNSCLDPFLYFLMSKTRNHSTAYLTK
# [1] = PAR4-transfected COS cells, read-out: half-maximal concentration (EC50), phosphoinositide hydrolysis with PAR4
molecule,measurement,setting,value
Chymotrypsin,activity against PAR4 (other proteases),PAR4,failed to activate
GYPGQV [GYPGQV],EC50,PAR4,~100000 nM
SFLLRN [reference compound],activity toward PAR4 of PAR1 activating peptide,PAR4; concentration effective for PAR1 activation,no activity
elastase,activity against PAR4 (other proteases),PAR4,failed to activate
thrombin,EC50,PAR4; [1],5 nM
same,"response of PAR4-transfected COS cells (phosphatidylinositol 4,5 diphosphate hydrolysis)",PAR4,did respond
same,EC50,PAR1,~0.2 nM
same,response of putative cleavage site mutant PAR4 (R47A) to protease,PAR4 (R47A),failed to respond; also recorded: only activate the wild-type PAR4
same,effect of R68A mutation on PAR4 activation by protease,PAR4 (R68A),no effect
same,EC50,PAR3,~0.2 nM
"trypsin: serine protease, activator of PAR4",EC50,PAR4; [1],5 nM
same,"response of PAR4-transfected COS cells (phosphatidylinositol 4,5 diphosphate hydrolysis)",PAR4,did respond
same,response of putative cleavage site mutant PAR4 (R47A) to protease,PAR4 (R47A),failed to respond; also recorded: only activate the wild-type PAR4
same,effect of R68A mutation on PAR4 activation by protease,PAR4 (R68A),no effect
urokinase,activity against PAR4 (other proteases),PAR4,little or no activity
B1,activity against PAR4 (other proteases),PAR4,little or no activity
